One block for each molecule: values may come before it.
Legend:
Chimera 5 [1] = molecular target: T1, Chimera 5 (Cupriavidus necator, UniProt P14697, G33A/N37E/S38F/R40K/R41P/E46K, form not given); test: initial rates and reaction progress curves, global fit; assay type: biochemical; details: MOPS 50 mM, NaCl 5 mM, MgCl2 5 mM, pH 7.0, 30 °C
T1 construct: gene phaB; AAR^Cn1 with segment G33-E46 replaced by A33-K46 of AAR^CAp (residues 36 and 44 conserved); E. coli BL21(DE3), IMAC
Text: initial rates and reaction progress curves, global fit on Chimera 5

[2] = molecular target: T2, Chimera 1 backbone (Chimera 2, Chimera 3, Chimera 4) (Cupriavidus necator, UniProt P14697, N37E/S38A/R40K/R41P, form not given); test: reaction progress curve analysis, absorbance […] nm; assay type: biochemical; details: AcAcCoA 2 mM, MOPS 50 mM, NaCl 5 mM, MgCl2 5 mM, pH 7.0, 30 °C, apparent kcat, read-out: Chimera3
T2 construct: gene phaB; AAR^Cn1 with N37-R41 replaced by E37-P41 of AAR^CAp (E37, F38, K40, P41 told in text); E. coli BL21(DE3), IMAC
T2 sequence (P14697 whole entry N37E/S38A/R40K/R41P, form open): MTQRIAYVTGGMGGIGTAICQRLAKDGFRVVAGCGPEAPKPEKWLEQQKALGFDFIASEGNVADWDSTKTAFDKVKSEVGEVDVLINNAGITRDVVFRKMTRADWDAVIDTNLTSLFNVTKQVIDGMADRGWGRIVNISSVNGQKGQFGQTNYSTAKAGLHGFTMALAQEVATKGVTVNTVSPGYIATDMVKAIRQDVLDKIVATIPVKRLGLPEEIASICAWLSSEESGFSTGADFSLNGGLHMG

[3] = molecular target: T3, Chimera 1 backbone (Chimera 2, Chimera 3, Chimera 4) (Cupriavidus necator, UniProt P14697, N37E/S38E/R40Q/R41P, form not given); test: as above; assay type: biochemical; details: AcAcCoA 2 mM, MOPS 50 mM, NaCl 5 mM, MgCl2 5 mM, pH 7.0, 30 °C, apparent kcat, read-out: Chimera4
T3 construct: gene phaB; AAR^Cn1 with N37-R41 replaced by E37-P41 of AAR^CAp (E37, F38, K40, P41 told in text); E. coli BL21(DE3), IMAC
T3 sequence (P14697 whole entry N37E/S38E/R40Q/R41P, form open): as the sequence (P14697 whole entry N37E/S38A/R40K/R41P, form open) above, with A38E, K40Q counted along it

[4] = molecular target: T4, Chimera 1 backbone (Chimera 2, Chimera 3, Chimera 4) (Cupriavidus necator, UniProt P14697, N37E/S38F/R40K/R41G, form not given); test: as above; assay type: biochemical; details: AcAcCoA 2 mM, MOPS 50 mM, NaCl 5 mM, MgCl2 5 mM, pH 7.0, 30 °C, apparent kcat, read-out: Chimera2
T4 construct: gene phaB; AAR^Cn1 with N37-R41 replaced by E37-P41 of AAR^CAp (E37, F38, K40, P41 told in text); E. coli BL21(DE3), IMAC
T4 sequence (P14697 whole entry N37E/S38F/R40K/R41G, form open): as the sequence (P14697 whole entry N37E/S38A/R40K/R41P, form open) above, with A38F, P41G counted along it

Chimera 5 [5] = molecular target: T1, Chimera 5; test: as above; assay type: biochemical; details: AcAcCoA 2 mM; MOPS 50 mM, NaCl 5 mM, MgCl2 5 mM, pH 7.0, 30 °C; apparent kcat; read-out: Chimera5
purified protein [6] = substrate: NC(=O)C1=CN([C@@H]2O[C@H](COP(=O)(O)OP(=O)(O)OC[C@H]3O[C@@H](n4cnc5c(N)ncnc54)[C@H](O)[C@@H]3O)[C@@H](O)[C@H]2O)C=CC1; test: purified protein; assay type: biochemical, Cupriavidus necator; details: AcAcCoA 2 mM, MOPS 50 mM, NaCl 5 mM, MgCl2 5 mM, pH 7.0, 30 °C, apparent kcat, varied: cofactor
purified protein [7] = substrate: NC(=O)C1=CN([C@@H]2O[C@H](COP(=O)(O)OP(=O)(O)OC[C@H]3O[C@@H](n4cnc5c(N)ncnc54)[C@H](OP(=O)(O)O)[C@@H]3O)[C@@H](O)[C@H]2O)C=CC1; test: purified protein; assay type: biochemical, Cupriavidus necator; details: AcAcCoA 2 mM, MOPS 50 mM, NaCl 5 mM, MgCl2 5 mM, pH 7.0, 30 °C, apparent kcat, varied: cofactor

T1 sequence (P14697 whole entry G33A/N37E/S38F/R40K/R41P/E46K, form open): as the sequence (P14697 whole entry N37E/S38A/R40K/R41P, form open) above, with G33A, A38F, E46K counted along it

Km (Chimera 5 [1]; NADH 1 mM, substrate inhibition model with KiS = KM): 50 µM
NADPH (Chimera 5 [1]; substrate inhibition, second site, NADPH 1 mM): 324 [195–465] µM
Molecule: CC(=O)CC(=O)SCCNC(=O)CCNC(=O)[C@H](O)C(C)(C)COP(=O)(O)OP(=O)(O)OC[C@H]1O[C@@H](n2cnc3c(N)ncnc32)[C@H](O)[C@@H]1OP(=O)(O)O [AcAcCoA]

Km [2]: 1750 µM
Km [3]: 120 µM
Km [4]: 1120 µM
Km (Chimera 5 [5]): 2790 µM
Molecule: NC(=O)C1=CN([C@@H]2O[C@H](COP(=O)(O)OP(=O)(O)OC[C@H]3O[C@@H](n4cnc5c(N)ncnc54)[C@H](OP(=O)(O)O)[C@@H]3O)[C@@H](O)[C@H]2O)C=CC1 [NADPH]

Km [2]: 886 µM
Km [3]: 618 µM
Km [4]: 140 µM
Km (Chimera 5 [5]): 43 µM
Molecule: NC(=O)C1=CN([C@@H]2O[C@H](COP(=O)(O)OP(=O)(O)OC[C@H]3O[C@@H](n4cnc5c(N)ncnc54)[C@H](O)[C@@H]3O)[C@@H](O)[C@H]2O)C=CC1 [NADH]

B1: AAR^Cn1 (acetoacetyl-CoA reductase encoded by phaB1) (Cupriavidus necator H16) (protein)
chain: MTQRIAYVTGGMGGIGTAICQRLAKDGFRVVAGCGPNSPRREKWLEQQKALGFDFIASEGNVADWDSTKTAFDKVKSEVGEVDVLINNAGITRDVVFRKMTRADWDAVIDTNLTSLFNVTKQVIDGMADRGWGRIVNISSVNGQKGQFGQTNYSTAKAGLHGFTMALAQEVATKGVTVNTVSPGYIATDMVKAIRQDVLDKIVATIPVKRLGLPEEIASICAWLSSEESGFSTGADFSLNGGLHMG
notes: recombinant, expressed in E. coli BL21(DE3), purified by IMAC
Km (purified protein [6]): 819 [688–975] µM
kcat (purified protein [6]): 10.3 s⁻¹
kcat/Km (purified protein [6]): 13000 M⁻¹ s⁻¹
Km (purified protein [7]): 44 [40–49] µM
kcat (purified protein [7]): 5.2 s⁻¹
kcat/Km (purified protein [7]): 118000 M⁻¹ s⁻¹

From PMC8904767, “Engineering an acetoacetyl-CoA reductase from Cupriavidus necator toward NADH preference under physiological conditions” (Scientific Reports, 2022)
